PubChem BioAssay AID330 (DTP/NCI, 2004)
Where “and” joins values, the source holds several entries; their conditions need not be identical. Identical values can stand only once. Inconclusive results and toxic doses are left out. Peptide text beside a SMILES is read from it.

System: P388 leukemia ip, CD2F1 mice, survival T/C
Assay: NCI In Vivo Anticancer Drug Screen. Data for tumor model P388 Leukemia (intraperitoneal) in CD2F1 (CDF1) mice
Details: endpoint: median survival time, higher = longer survival
Method in brief: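 Mice carrying the transplanted tumor received test compound or vehicle. Survival was recorded in each group, and the value is the treated-group measurement divided by that of the vehicle-treated control group.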

[1] = dose: 12.5 mg/kg/injection, schedule: Q01DX009 (ip), vehicle: saline with Tween-80
[2] = dose: 50.0 mg/kg/injection, schedule: Q01DX005 (ip), vehicle: Klucel (hydroxypropylcellulose) (HPC)
[3] = dose: 100.0 mg/kg/injection, schedule: Q01DX005 (ip), vehicle: Klucel (hydroxypropylcellulose) (HPC)
[4] = dose: 200.0 mg/kg/injection, schedule: Q01DX005 (ip), vehicle: Klucel (hydroxypropylcellulose) (HPC)
[5] = dose: 100.0 mg/kg/injection, schedule: Q01DX001 (ip), vehicle: saline with Tween-80
[6] = dose: 200.0 mg/kg/injection, schedule: Q01DX001 (ip), vehicle: saline with Tween-80
[7] = dose: 400.0 mg/kg/injection, schedule: Q01DX001 (ip), vehicle: saline with Tween-80
[8] = dose: 25.0 mg/kg/injection, schedule: Q01DX009 (ip), vehicle: water
[9] = dose: 50.0 mg/kg/injection, schedule: Q01DX009 (ip), vehicle: water
[10] = dose: 50.0 mg/kg/injection, schedule: Q01DX009 (ip), vehicle: saline with Tween-80
[11] = dose: 100.0 mg/kg/injection, schedule: Q01DX009 (ip), vehicle: saline with Tween-80
[12] = dose: 200.0 mg/kg/injection, schedule: Q01DX009 (ip), vehicle: saline with Tween-80
[13] = dose: 60.0 mg/kg/injection, schedule: Q01DX005 (ip), vehicle: saline with Tween-80
[14] = dose: 120.0 mg/kg/injection, schedule: Q01DX005 (ip), vehicle: saline with Tween-80
[15] = dose: 240.0 mg/kg/injection, schedule: Q01DX005 (ip), vehicle: saline with Tween-80
[16] = dose: 50.0 mg/kg/injection, schedule: Q01DX009 (ip), vehicle: Klucel (hydroxypropylcellulose) (HPC)
[17] = dose: 100.0 mg/kg/injection, schedule: Q01DX009 (ip), vehicle: Klucel (hydroxypropylcellulose) (HPC)
[18] = dose: 200.0 mg/kg/injection, schedule: Q01DX009 (ip), vehicle: Klucel (hydroxypropylcellulose) (HPC)
[19] = dose: 25.0 mg/kg/injection, schedule: Q01DX009 (ip), vehicle: saline with Tween-80

N=C(N)c1ccc(Oc2ccc(Oc3ccc(C(=N)N)cc3)cc2)cc1
T/C (dose: 3.13 mg/kg/injection, schedule: Q01DX009 (ip), vehicle: saline with Tween-80): 109 % of control
T/C (dose: 3.13 mg/kg/injection, schedule: Q01DX009 (ip), vehicle: saline): 102 % of control
T/C (dose: 6.25 mg/kg/injection, schedule: Q01DX009 (ip), vehicle: saline with Tween-80): 109 % of control
T/C (dose: 6.25 mg/kg/injection, schedule: Q01DX009 (ip), vehicle: saline): 113 % of control
T/C [1]: 124 % of control

COc1ccc(OC)c2c(Cl)cc(NCCCN3CCN(CCCNc4cc(Cl)c5c(OC)ccc(OC)c5n4)CC3)nc12
T/C [2]: 97 % of control
T/C [3]: 93 % of control
T/C [4]: 90 % of control

CC(=O)OCC1=COC(OC(=O)CC(C)(C)OC(C)=O)C2C1=CC(OC(=O)CC(C)C)[C@@]21CO1 (stereo not given in full)
T/C (dose: 10.0 mg/kg/injection, schedule: Q01DX005 (ip), vehicle: saline): 97 % of control
T/C (dose: 20.0 mg/kg/injection, schedule: Q01DX005 (ip), vehicle: saline): 93 % of control
T/C (dose: 40.0 mg/kg/injection, schedule: Q01DX005 (ip), vehicle: saline): 99 % of control

Clc1ccc(CSc2nnc3c(n2)[nH]c2ccccc23)cc1
T/C [2]: 100 % of control
T/C [3]: 107 % of control
T/C [4]: 98 % of control

CC(C)(O)c1ccccc1S(=O)c1ccccc1C(C)(C)O
T/C [5]: 93 % of control
T/C [6]: 95 % of control
T/C [7]: 98 % of control

O=S(=O)(O)C1=CC(=N\Cl)/C=CC/1=N/Cl
T/C (dose: 25.0 mg/kg/injection, schedule: Q01DX005 (ip), vehicle: saline + Tween-80 + alcohol): 100 % of control and 113 % of control
T/C (dose: 50.0 mg/kg/injection, schedule: Q01DX005 (ip), vehicle: saline + Tween-80 + alcohol): 107 % of control and 113 % of control and 119 % of control
T/C (dose: 100.0 mg/kg/injection, schedule: Q01DX005 (ip), vehicle: saline + Tween-80 + alcohol): 111 % of control and 117 % of control
T/C (dose: 200.0 mg/kg/injection, schedule: Q01DX005 (ip), vehicle: saline + Tween-80 + alcohol): 116 % of control and 120 % of control

COc1ccc(Sc2ccccn2)cc1OC
T/C (dose: 50.0 mg/kg/injection, schedule: Q01DX005 (ip), vehicle: saline with Tween-80): 101 % of control
T/C (dose: 100.0 mg/kg/injection, schedule: Q01DX005 (ip), vehicle: saline with Tween-80): 106 % of control
T/C (dose: 200.0 mg/kg/injection, schedule: Q01DX005 (ip), vehicle: saline with Tween-80): 114 % of control

CN1CCC(CO)C1 (stereo not given)
T/C (dose: 12.5 mg/kg/injection, schedule: Q01DX009 (ip), vehicle: water): 91 % of control
T/C [8]: 91 % of control
T/C [9]: 91 % of control

CN(C)c1nc(N(C)C)nc([N+]23CN4CN(CN(C4)C2)C3)n1
T/C [10]: 114 % of control
T/C [11]: 108 % of control
T/C [12]: 114 % of control

CC(C)C(N)C(=O)NCC(=O)NC(CO)C(=O)NC(CCC(=O)O)C(=O)O (stereo not given) (H-VGSE-OH; configuration not given here)
T/C (dose: 10.0 mg/kg/injection, schedule: Q01DX005 (ip), vehicle: water): 100 % of control
T/C (dose: 20.0 mg/kg/injection, schedule: Q01DX005 (ip), vehicle: water): 102 % of control
T/C (dose: 40.0 mg/kg/injection, schedule: Q01DX005 (ip), vehicle: water): 100 % of control
T/C (dose: 80.0 mg/kg/injection, schedule: Q01DX005 (ip), vehicle: water): 97 % of control
T/C (dose: 160.0 mg/kg/injection, schedule: Q01DX005 (ip), vehicle: water): 104 % of control

O=C1OCCN1c1cccc2ccccc12
T/C [13]: 95 % of control
T/C [14]: 96 % of control
T/C [15]: 93 % of control

CN(C)c1ccc(C2N(C)CCN2C)cc1
T/C [13]: 93 % of control
T/C [14]: 99 % of control
T/C [15]: 103 % of control

O=[N+]([O-])c1ccc(-c2csc(-c3ccc(Br)cc3)n2)cc1
T/C [16]: 87 % of control
T/C [17]: 95 % of control
T/C [18]: 92 % of control

O=c1c2cc3c(=O)n(CC[P+](c4ccccc4)(c4ccccc4)c4ccccc4)c(=O)c3cc2c(=O)n1CC[P+](c1ccccc1)(c1ccccc1)c1ccccc1
T/C (dose: 0.78 mg/kg/injection, schedule: Q01DX009 (ip), vehicle: water): 99 % of control
T/C (dose: 1.56 mg/kg/injection, schedule: Q01DX009 (ip), vehicle: water): 97 % of control
T/C (dose: 3.13 mg/kg/injection, schedule: Q01DX009 (ip), vehicle: water): 93 % of control

C1COCCOCCOCCO1.[Br][Sn]([Br])([Br])[Br]
T/C (dose: 60.0 mg/kg/injection, schedule: Q01DX005 (ip), vehicle: Klucel (hydroxypropylcellulose) (HPC)): 103 % of control
T/C (dose: 120.0 mg/kg/injection, schedule: Q01DX005 (ip), vehicle: Klucel (hydroxypropylcellulose) (HPC)): 107 % of control

CN(C)c1ccc(/C=C/c2ccc3ccccc3n2)cc1
T/C [19]: 95 % of control
T/C [10]: 100 % of control
T/C [11]: 100 % of control
T/C (dose: 100.0 mg/kg/injection, schedule: Q04DX003 (ip), vehicle: saline with Tween-80): 100 % of control

COc1cccc2c1C(=O)c1c(O)c3c(c(O)c1C2=O)CC(O)(c1cscn1)CC3O (stereo not given)
T/C (dose: 1.56 mg/kg/injection, schedule: Q01DX009 (ip), vehicle: other): 104 % of control
T/C (dose: 3.13 mg/kg/injection, schedule: Q01DX009 (ip), vehicle: other): 107 % of control
T/C (dose: 6.25 mg/kg/injection, schedule: Q01DX009 (ip), vehicle: other): 101 % of control
T/C (dose: 12.5 mg/kg/injection, schedule: Q01DX009 (ip), vehicle: other): 105 % of control
T/C (dose: 25.0 mg/kg/injection, schedule: Q01DX009 (ip), vehicle: other): 104 % of control
T/C (dose: 50.0 mg/kg/injection, schedule: Q01DX009 (ip), vehicle: other): 113 % of control

CNC(=S)N(C1CCCCC1)C1CCCCC1
T/C [10]: 103 % of control
T/C [11]: 105 % of control
T/C [12]: 100 % of control

CCCCCCCCCCCCCCCC(=O)N(CCCN)CCCN(CCCN)C(=O)CCCCCCCCCCCCCCC
T/C [1]: 86 % of control
T/C [19]: 109 % of control
T/C [10]: 100 % of control

CC1(C)OCC(C(OS(C)(=O)=O)C2OC(C)(C)OC2COS(C)(=O)=O)O1 (stereo not given)
T/C [16]: 91 % of control
T/C [17]: 97 % of control
T/C [18]: 99 % of control

CC(=O)N1c2ccccc2Sc2ccc3ccc(C(=O)CCl)cc3c21
T/C [11]: 115 % of control

CC1(C)OCC(C(O)c2nc3ccccc3nc2C(=O)Nc2ccccc2N)O1 (stereo not given)
T/C [5]: 97 % of control
T/C [6]: 92 % of control
T/C [7]: 86 % of control

COc1cc(C=Nc2cc(Cl)c(Cl)c(Cl)c2)ccc1N(CCCl)CCCl
T/C (dose: 0.79 mg/kg/injection, schedule: Q01DX009 (ip), vehicle: Klucel (hydroxypropylcellulose) (HPC)): 105 % of control

COC(=O)C1C2C=CC(C1C(=O)OC)C1C(C(=O)NN)C(C(=O)NN)C21 (stereo not given)
T/C [13]: 98 % of control
T/C [14]: 97 % of control
T/C [15]: 96 % of control

O=c1c2ccccc2on1CN1CCN(Cn2oc3ccccc3c2=O)CC1
T/C (dose: 50.0 mg/kg/injection, schedule: Q01DX005 (ip), vehicle: water): 106 % of control
T/C (dose: 100.0 mg/kg/injection, schedule: Q01DX005 (ip), vehicle: water): 108 % of control
T/C (dose: 200.0 mg/kg/injection, schedule: Q01DX005 (ip), vehicle: water): 111 % of control

CP1(=S)CCC2=C1c1ccc(O)cc1CC2 (stereo not given)
T/C (dose: 50.0 mg/kg/injection, schedule: Q01DX009 (ip), vehicle: saline): 100 % of control
T/C (dose: 100.0 mg/kg/injection, schedule: Q01DX009 (ip), vehicle: saline): 100 % of control
T/C (dose: 200.0 mg/kg/injection, schedule: Q01DX009 (ip), vehicle: saline): 101 % of control

O=C1C=C2CCCCCCCCCC(C1)C2 (stereo not given)
T/C [2]: 99 % of control
T/C [3]: 99 % of control
T/C [4]: 89 % of control

C=C(CC(O)c1ccccc1)C(=O)Nc1ccccc1OC (stereo not given)
T/C (dose: 50.0 mg/kg/injection, schedule: Q01DX005 (ip), vehicle: saline): 98 % of control
T/C (dose: 100.0 mg/kg/injection, schedule: Q01DX005 (ip), vehicle: saline): 103 % of control
T/C (dose: 200.0 mg/kg/injection, schedule: Q01DX005 (ip), vehicle: saline): 100 % of control

[Cl][Pt][Cl].[NH-]CC(=O)O
T/C [8]: 171 % of control and 185 % of control
T/C [9]: 104 % of control
